This is an account of results in US12275734B1, “Pleuromutilin onium salt derivative containing a 3H-imidazo[4,5-c]pyridine side chain, and a preparation method and application thereof” (SHAANXI UNIVERSITY OF SCIENCE AND TECHNOLOGY, priority 2024, dated 2025).

In brackets after ≈: the same amount, converted by molar mass. Read-outs that look alike come from different tables or passages of the source.

What all share (format): cell-based
The subject of test [1] is methicillin-resistant Staphylococcus aureus-596. The test can be described thus: MIC, clinical isolates. The protocol: (§1) The minimum inhibitory concentration of 3H-imidazo[4,5-C]pyridine pleuromutilin onium salt derivatives against the tested pathogenic microorganisms were determined by broth microdilution method, with valnemulin and retapamulin as positive controls.
(§2) The experimental strains included resistant Gram-positive bacteria: Methicillin-resistant S. aureus ATCC 33591; Methicillin-resistant S. aureus ATCC 43300; S. aureus ATCC 29213; Methicillin-resistant S. epidermidis ATCC 51625. Resistant Gram-negative bacteria: A. baumannii ATCC 19606; S. enterica ATCC14028; E. coli ATCC 25922; E. coli CMCC 44103. 9 clinically isolated resistant strains: MRSA-171; MRSA-575; MRSA-206; MRSA-222; MRSA-596; VRE-80; MDR-PA-126; MDR-KP-893; CR-AB-882.
(§3) (1) Preparation of MHB medium: Weigh 18.0 g of MHB medium pre-made powder, add it to 1 L of distilled water, heat and boil until completely dissolved, divide it into conical bottles, sterilize it by high pressure at 121° C. for 15 minutes, and set aside.
(§4) (2) Cultivate the experimental strain to the logarithmic growth phase: Under sterile conditions, inoculate the experimental strain into fresh MHB medium and culture it in a 37° C. constant temperature and humidity incubator for 16-24 hours. Adjust the bacterial solution concentration to 1.5×10^8 CFU/mL and then dilute it 200 times for later use.
(§5) (3) Preparation of storage solution: Weigh the sample to be tested, dissolve it in 1% DMSO solution, and prepare a storage solution with a concentration of 2560 μg/mL; weigh the positive control, dissolve it in sterile distilled water, and prepare a storage solution with a concentration of 2560 μg/mL.
(§6) (4) Preparation of bacterial suspension: Under sterile conditions, the experimental strain cultured to the logarithmic growth phase was calibrated to a 0.5 McFarland unit turbidity standard using MHB medium and then diluted at a ratio of 1:200 to prepare a bacterial suspension with a concentration of 5×10^5 CFU/mL for later use.
(§7) (5) Determination of MIC by two-fold microdilution method: Take a sterile 96-well plate, add 10 μL of the test compound at a concentration of 2560 μg/mL, and perform serial dilutions by the two-fold dilution method. At the same time, set up a negative control group without drug. Then add 190 μL of diluted bacterial solution to each well, so that the final bacterial solution concentration in each well is 5×10^5 CFU/mL, and incubate in a 37° C. constant temperature and humidity chamber for 24 hours.

Test [2] has as its system multidrug-resistant Klebsiella pneumoniae-893. Kind of test: MIC, clinical isolates. The settings on record: clinical isolate MDR-KP-893. On the procedure:
as §1, §2, §3, §4, §5, §6, §7

In test [3] the test system is C. pneumoniae AR39, ATCC53592. Kind of test: Anti-mycoplasma MIC. The settings on record: Chlamydia pneumoniae. On the procedure: (§8) The antimycoplasma activity was quantified using the […]. Retapamulin was used as a positive control to test the minimum inhibitory concentration of 3H-imidazo[4,5-C]pyridine pleuromutilin onium salt derivatives.
(§9) (1) Preparation of KM2 medium: Weigh 38.9 g of KM2 medium, add it to 800 mL of distilled water, boil to dissolve, sterilize under high pressure at 115° C. for 20 min, and set aside.
(§10) (2) Preparation of bacterial stock solution: Take 0.5 mL of Mhp-J^a, Mhp-LH^b, Mhr-BTS-7^c, MG-R^d, MS-WVU1853^e, MP-M129^f, CP-AR-39^g, CP-CWL-029^h, CP-TW-183^i, MH-PG-21^j, MG-G37^k cultured to the logarithmic phase and transfer it to 4.5 mL of KM2 liquid culture medium. When the culture medium turns yellow, divide each bacterium into 0.5 mL per tube and store it at −70° C. as bacterial stock solution.
(§11) (3) Determination of bacterial titer (color change unit, CCU): Take out the bacterial stock solution stored at −70° C., melt and balance to room temperature, add 0.18 mL KM2 medium to each well of the middle 4 rows of the 96-well plate (i.e. 4 parallels), take 0.02 mL and add it to the first column, dilute 10 times to 10^−11, and set up a negative control containing only KM2 medium (12th column). After sealing, put it in a 37° C. incubator and observe the results every day. The highest dilution at which the color of the medium changes is the CCU/mL of the strain.
(§12) Take an appropriate amount of seed bacterial solution and dilute it to 10^4 CCU/mL in turn according to its titer. Add drugs of each dilution in a 96-well plate in turn, and then add an equal amount of diluted bacterial solution. Set 200 μL of diluted mycoplasma bacterial solution as a positive control, 200 μL of KM2 liquid culture medium as a negative control, and set a solvent control group (10 μL of drug solvent+190 μL of mycoplasma bacterial solution). Each experiment is set up in 3 parallels. After all culture plates are sealed, they are cultured at 37° C., observed daily, and the final MIC value is recorded.

The subject of test [4] is C. pneumoniae TW183, VR-2282. Kind of test: Anti-mycoplasma MIC. The note with it: Chlamydia pneumoniae, read-out: Antimycoplasma activity (MIC) CP-TW-183^i. On the procedure: as §8, §9, §10, §11, §12
The test system of test [5] is M. galliscepticum, NCTC10115. Kind of test: Anti-mycoplasma MIC. The settings on record: read-out: Antimycoplasma activity (MIC) MG-R^d. The protocol: as §8, §9, §10, §11, §12
In test [6] the test system is M. genitalium G37, ATCC33530. The test can be described thus: Anti-mycoplasma MIC. The settings on record: Mycoplasmoides genitalium. The protocol: as §8, §9, §10, §11, §12
Test [7] has as its system M. hominis PG-21, ATCC23114. Kind of test: Anti-mycoplasma MIC. The settings on record: Metamycoplasma hominis. The protocol:
as §8, §9, §10, §11, §12

In test [8] the test system is M. hyopneumoniae J, NCTC10110. Kind of test: Anti-mycoplasma MIC. The settings on record: Mesomycoplasma hyopneumoniae. The protocol:
as §8, §9, §10, §11, §12

For test [9], the system named is M. hyorhinis BTS-7, NCTC10130. Kind of test: Anti-mycoplasma MIC. The settings on record: Mesomycoplasma hyorhinis. The protocol: as §8, §9, §10, §11, §12
In test [10] the test system is M. pneumoniae M129, ATCC29342. The test can be described thus: Anti-mycoplasma MIC. The settings on record: Mycoplasmoides pneumoniae. On the procedure: as §8, §9, §10, §11, §12
Test [11] deals with M. synoviae WVU1853, NCTC10124. The test can be described thus: Anti-mycoplasma MIC. The note with it: Mycoplasmopsis synoviae. The protocol:
as §8, §9, §10, §11, §12

As for `C=C[C@]1(C)C[C@@H](OC(=O)CSc2nc3cc[n+](Cc4ccc(C)cc4)cc3[nH]2)[C@]2(C)[C@H](C)CC[C@]3(CCC(=O)[C@H]32)[C@@H](C)[C@@H]1O` [Compound i, 5-(4-methylbenzyl)-2-((2-(((3aR,4R,5R,7S,8S,9R,9aS,12R)-8-hydroxy-4,7,9,12-tetramethyl-3-oxo-7-vinyldecahydro-4,9a-propancyclopenta[8]cyclo-5-yl)oxy)-2-oxoethyl)thio)-3H-imidazo[4,5-C]pyridine-5-ium], the minimal inhibitory concentration (MIC) in test [1] (clinical isolate MRSA-596, read-out: Antibacterial activity (MIC) MRSA^f) came to 2 µg/mL; in test [3] (ATCC53592, C. pneumoniae AR39, read-out: Antimycoplasma activity (MIC) CP-AR-39^g), 0.002 µg/mL; in test [4] (C. pneumoniae TW183), 0.01 µg/mL; in test [5] (M. galliscepticum), 0.04 µg/mL; in [6] (ATCC33530, M. genitalium G37, read-out: Antimycoplasma activity (MIC) MG-G37^k), 0.03 µg/mL; in test [7] (ATCC23114, M. hominis PG-21, read-out: Antimycoplasma activity (MIC) MH-PG-21^j), 0.015 µg/mL. The MIC came to 0.02 µg/mL in test [8] (NCTC10110, M. hyopneumoniae J, read-out: Antimycoplasma activity (MIC) Mhp-J^a); 0.03 µg/mL in test [9] (NCTC10130, M. hyorhinis BTS-7, read-out: Antimycoplasma activity (MIC) Mhr-BTS-7^c); 0.008 µg/mL in [10] (ATCC29342, M. pneumoniae M129, read-out: Antimycoplasma activity (MIC) MP-M129^f); 0.015 µg/mL in [11] (NCTC10124, M. synoviae WVU1853, read-out: Antimycoplasma activity (MIC) MS-WVU1853^e). Moreover, the “Antibacterial activity (MIC) MDR-KP^i” value in [2] stood at 2 µg/mL.
Consider `C=C[C@]1(C)C[C@@H](OC(=O)CS[C@@H]2C[C@H]3CC[C@@H](C2)N3C)[C@]2(C)[C@H](C)CC[C@]3(CCC(=O)[C@H]32)[C@@H](C)[C@@H]1O` [Retapamulin, reference compound], for which the MIC was found to be 32 µg/mL (≈ 61.8 µM) in [1] (MRSA, read-out: Antibacterial activity (MIC) MRSA^f); 0.125 µg/mL (≈ 0.241 µM) in test [3] (ATCC53592, read-out: Antimycoplasma activity (MIC) CP-AR-39^g); 0.03 µg/mL (≈ 0.0579 µM) in [4]; 0.125 µg/mL (≈ 0.241 µM) in [5]; 0.03 µg/mL (≈ 0.0579 µM) in test [6] (ATCC33530, read-out: Antimycoplasma activity (MIC) MG-G37^k); 0.25 µg/mL (≈ 0.483 µM) in test [7] (ATCC23114, read-out: Antimycoplasma activity (MIC) MH-PG-21^j). Besides, the minimal inhibitory concentration (MIC) came out at 0.03 µg/mL (≈ 0.0579 µM) in [8] (NCTC10110, read-out: Antimycoplasma activity (MIC) Mhp-J^a); 0.03 µg/mL (≈ 0.0579 µM) in test [9] (NCTC10130, read-out: Antimycoplasma activity (MIC) Mhr-BTS-7^c); 0.015 µg/mL (≈ 0.029 µM) in test [10] (ATCC29342, read-out: Antimycoplasma activity (MIC) MP-M129^f); 2 µg/mL (≈ 3.86 µM) in test [11] (NCTC10124, read-out: Antimycoplasma activity (MIC) MS-WVU1853^e). Besides, in test [2], the “Antibacterial activity (MIC) MDR-KP^i” value is 128 µg/mL.

The MIC is the lowest concentration found to suppress growth.
